Test results published in ChEMBL document CHEMBL2434925, “Synthesis and antiviral activity of a novel class of (5-oxazolyl)phenyl amines” (Eur J Med Chem, 2013).

Columns and labels:
Coxsackievirus B3 = experiment: Antiviral activity against Coxsackie B3 virus Nancy in african green monkey Vero cells assessed as inhibition virus-induced cytopathic effect after 48 hrs; assay type: functional, organism-based; settings: Enterovirus B
[1] = Selectivity index, ratio of CC50 for human Huh7.5 cells to IC50 for HCV expressing pFL-J6/JFH/JC1; assay type: functional, Huh-7
[2] = Selectivity index, ratio of CC50 for african green monkey Vero cells to IC50 for Coxsackie B3 virus Schmitt; assay type: functional
Coxsackievirus B6 = experiment: Antiviral activity against Coxsackie B6 virus Schmitt in african green monkey Vero cells assessed as inhibition virus-induced cytopathic effect after 48 hrs; assay type: functional, organism-based; settings: Enterovirus B
[3] = Selectivity index, ratio of CC50 for african green monkey Vero cells to IC50 for Coxsackie B3 virus Nancy; assay type: functional
Hepatitis C virus = experiment: Antiviral activity against HCV expressing pFL-J6/JFH/JC1 infected in human Huh7.5 cells assessed as inhibition of viral RNA synthesis after 96 hrs by one-step RT-PCR analysis; assay type: functional, organism-based, Hepacivirus hominis; settings: Huh-7, 96 h
[4] = Cytotoxicity against human Huh7.5 cells after 96 hrs by MTT assay; assay type: cell-based, Huh-7
[5] = Cytotoxicity against african green monkey Vero cells after 96 hrs by MTT assay; assay type: cell-based; settings: chlorocebus sabaeus

Row | SMILES | IC50 (Coxsackievirus B3) [µM] | Ratio CC50/IC50 [1] | Ratio CC50/IC50 [2] | IC50 (Coxsackievirus B6) [µM] | Ratio CC50/IC50 [3] | IC50 (Hepatitis C virus) [µM] | CC50 at 96 h [4] [µM] | CC50 at 96 h [5] [µM]
1 | COc1cc(NCc2c[nH]c3ccccc23)ccc1-c1cnco1 | 9.95 | 34.6 | 2.1 | 23.2 | 4.9 | 1.62 | 56.1 | 48.3
2 | COc1cc(/N=C/c2ccc(F)cc2)ccc1-c1cnco1 | 43.3 | >84.8 | 5.6 | 58.2 | 7.5 | 1.18 | > 100 | 324
3 | COc1ccc(CNc2ccc(-c3cnco3)c(OC)c2)cc1 | 0.87 | 29.5 | 7 | 3.42 | 27.5 | 1.4 | 41.3 | 23.9
4 | COc1ccc(O)c(CNc2ccc(-c3cnco3)c(OC)c2)c1 | 9.96 | >10.1 | 4.3 | 22.7 | 9.9 | 9.95 | > 100 | 98.2
5 | COc1ccccc1/C=C/CNc1ccc(-c2cnco2)c(OC)c1 | 3.15 | 12.7 | 1.7 | 7.34 | 4 | 2.3 | 29.2 | 12.7
6 | COc1cc(NC/C=C/c2ccccc2)ccc1-c1cnco1 | 3.52 | >42 | 15.5 | 4.67 | 20.6 | 2.38 | > 100 | 72.5
7 | COc1ccc2[nH]cc(CNc3ccc(-c4cnco4)c(OC)c3)c2c1 | > 7.07 | >122 |  | > 7.07 |  | 0.82 | > 100 | 36.7
8 | NC(=O)c1ncn([C@@H]2O[C@H](CO)[C@@H](O)[C@H]2O)n1 [RIBAVIRIN] | 1580 |  |  | 910 | 5.2 |  |  | 8190
9 | COc1cc(NCc2csc3ccccc23)ccc1-c1cnco1 | 1.87 | <19.1 | 5.2 | 2.43 | 6.8 | > 1.24 | 23.6 | 12.7
10 | COc1cc(NCc2cccc(C)n2)ccc1-c1cnco1 | 14.5 | 26.1 | 11.8 | 6.36 | 5.2 | 2.4 | 62.7 | 75.2
11 | COc1cc(NCc2ccc(-c3ccccc3)s2)ccc1-c1cnco1 | 2.26 | 28.3 | 9.1 | 0.75 | 3 | 0.92 | 26 | 6.82
12 | COc1cc(NCc2ccc(C)s2)ccc1-c1cnco1 | 3.52 | 16.8 | 11.8 | 2.1 | 7 | 2.05 | 34.4 | 24.7
13 | COc1cc(NCc2ccc(C(=O)O)s2)ccc1-c1cnco1 | 67.3 | >4.5 | 6.2 | 56 | 5.2 | 22.4 | > 100 | 350
14 | CCc1ccc(CNc2ccc(-c3cnco3)c(OC)c2)s1 | 2 | 19.8 | 3 | 4.55 | 6.8 | 1.98 | 39.1 | 13.6
15 | COc1cc(/N=C/c2cccs2)ccc1-c1cnco1 | 101 | >17.5 | 9 | 45.1 | 4 | 5.72 | > 100 | 406
16 | COc1cc(NCc2ccc(Br)s2)ccc1-c1cnco1 | 5.14 | <10.5 | 39.4 | 1.2 | 9.2 | > 3.75 | 39.4 | 47.3
17 | COc1cc(NCc2cc3ccccc3s2)ccc1-c1cnco1 | 1.39 | 57.9 | 6.9 | 1.07 | 5.3 | 0.5 | 29 | 7.36
18 | COc1cc(NCc2ccc(C)o2)ccc1-c1cnco1 | 5.01 | 62.8 | 6.7 | 6.78 | 9 | 1.01 | 63.4 | 45.1

Row | SMILES | IC50 (Coxsackievirus B3) [µM] | Ratio CC50/IC50 [1] | Ratio CC50/IC50 [2] | IC50 (Coxsackievirus B6) [µM] | Ratio CC50/IC50 [3] | IC50 (Hepatitis C virus) [µM] | CC50 at 96 h [4] [µM] | CC50 at 96 h [5] [µM]
19 | COc1ccc(-c2cnco2)cc1NCc1cccs1 | 25.9 | >32.5 | 4.8 | 11.3 | 2.1 | 3.08 | > 100 | 53.8
20 | COc1cc(NCc2ccsc2)ccc1-c1cnco1 | 3.66 | 50.5 | 38.9 | 4.65 | 49.4 | 1.25 | 63.1 | 181
21 | COc1cc(NCc2cncs2)ccc1-c1cnco1 | 19.6 | 94.4 | 20.5 | 11.3 | 11.8 | 0.73 | 68.9 | 232
22 | COc1cc(NCc2ccc(OC)c(OC)c2OC)ccc1-c1cnco1 | 0.73 | 48.4 | 17 | 1.7 | 39.5 | 0.66 | 32 | 28.8
23 | COc1ccc(-c2cnco2)cc1NCc1ccc(C)s1 | 8.22 | 21.9 | 3.4 | 12.8 | 5.2 | 2.42 | 52.9 | 42.7
24 | COc1cc(NCc2cccs2)ccc1-c1cnco1 | 0.94 | 183.3 | 11.7 | 1.54 | 19.1 | 0.28 | 51.3 | 17.9
25 | COc1cc(NCc2cc(OC)c(OC)c(OC)c2)ccc1-c1cnco1 | 11.6 | <9.9 | 3.6 | 11.6 | 3.6 | > 3.71 | 36.6 | 41.6
26 | COc1cc(/N=C/C=C/c2ccccc2)ccc1-c1cnco1 | 15.1 | >14.3 | 5.6 | 18.9 | 7 | 6.99 | > 100 | 105
27 | COc1cc(NCc2ccc(Cl)s2)ccc1-c1cnco1 | 1.37 | 130.8 | 64 | 0.84 | 39.3 | 0.33 | 43.2 | 53.8
28 | COc1cc(NCc2cccnc2Cl)ccc1-c1cnco1 | 4.21 | 22.5 | 12.2 | 3.33 | 9.7 | 1.8 | 40.5 | 40.6
29 | COc1cc(NCc2ccco2)ccc1-c1cnco1 | 7.6 | 75.4 | 8.2 | 6.96 | 7.5 | 1.06 | 80 | 57
30 | COc1cc(NCc2scnc2C)ccc1-c1cnco1 | 5.67 | 8.5 | 7 | 10.6 | 13 | 6.88 | 58.5 | 73.7
31 | COc1cc(/N=C/c2ccc([N+](=O)[O-])o2)ccc1-c1cnco1 | > 7.88 | 16.5 | 2.8 | 4.88 |  | 1.24 | 20.5 | 13.7
32 | COc1ccc(CNc2ccc(-c3cnco3)c(OC)c2)cn1 | 6.03 | 17.5 | 36.7 | 10.1 | 61.5 | 3.25 | 56.8 | 371
33 | COc1cc(NCc2ccncc2)ccc1-c1cnco1 | 26.3 | 12.7 | 22.5 | 15.2 | 13 | 5.71 | 72.2 | 342
34 | COc1cc(/N=C/c2ccncc2)ccc1-c1cnco1 | 34.9 | >62.1 | 15.6 | 15.3 | 6.8 | 1.61 | > 100 | 239
35 | COc1c(C)c2c(c(O)c1C/C=C(\C)CCC(=O)O)C(=O)OC2 [MYCOPHENOLIC ACID] | 10.2 | >24 | 9 | 69.4 | 61.5 | 4.16 | > 100 | 624
